According to patent US10294202B2, “Pyrrolidinones as herbicides” (FMC Corporation, priority 2013, dated 2019):

Columns and labels:
kochia = test: Test A pre-/postemergence herbicide test; assay type: in vivo, Kochia scoparia
Excerpt: (§1) Seeds of plant species selected from bamyardgrass (Echinochloa crus-galli), kochia (Kochia scoparia), ragweed (common ragweed, Ambrosia elatior), ryegrass, Italian (Italian ryegrass, Lolium multiflorum), crabgrass, large (large crabgrass Digitaria sanguinalis), giant foxtail (Setaria faberii), morningglory (Ipomoea spp.), pigweed (Amaranthus retroflexus), velvetleaf (Abutilon theophrasti), wheat (Triticum aestivum), and corn (Zea mays) were planted into a blend of loam soil and sand and treated preemergence with a directed soil spray using test chemicals formulated in a non-phytotoxic solvent mixture which included a surfactant. At the same time, plants selected from these crop and weed species and also blackgrass (Alopecurus myosuroides), and galium (catchweed bedstraw, Galium aparine) were planted in pots containing the same blend of loam soil and sand and treated with postemergence applications of test chemicals formulated in the same manner. Plants ranged in height from 2 to 10 cm and were in the one- to two-leaf stage for the postemergence treatment. Treated plants and untreated controls were maintained in a greenhouse for approximately 10 days, after which time all treated plants were compared to untreated controls and visually evaluated for injury. Plant response ratings, summarized in Table A, are based on a 0 to 100 scale where 0 is no effect and 100 is complete control. A dash (-) response means no test result.

giant foxtail = test: Test A pre-/postemergence herbicide test; assay type: in vivo, Setaria faberii
Method in brief: (§2)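 Visual 0–100 ratings (100 = complete control) made about 10 days after treatment, greenhouse-held plants compared with untreated controls. Treatments: postemergence sprays on one- to two-leaf plants (2–10 cm tall) and preemergence directed soil sprays after planting in loam–sand, chemicals formulated in non-phytotoxic solvent containing surfactant.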

ragweed = test: Test A pre-/postemergence herbicide test; assay type: in vivo, Ambrosia elatior
Excerpt: as §1

pigweed = test: Test A pre-/postemergence herbicide test; assay type: in vivo, Amaranthus retroflexus
Method in brief: as §2

ryegrass, Italian = test: Test A pre-/postemergence herbicide test; assay type: in vivo, Lolium multiflorum
Method in brief: as §2

corn = test: Test A pre-/postemergence herbicide test; assay type: in vivo, Zea mays; details: Postemergence; for Corn plant response rating (0 to 100 scale, 0 is no effect, 100 is complete control): 500 g ai/ha
Method in brief: as §2

blackgrass = test: Test A postemergence herbicide test; assay type: in vivo, Alopecurus myosuroides; details: for Blackgrass plant response rating (0 to 100 scale, 0 is no effect, 100 is complete control): 500 g ai/ha
Excerpt: (§3) At the same time, plants selected from these crop and weed species and also blackgrass (Alopecurus myosuroides), and galium (catchweed bedstraw, Galium aparine) were planted in pots containing the same blend of loam soil and sand and treated with postemergence applications of test chemicals formulated in the same manner. Plants ranged in height from 2 to 10 cm and were in the one- to two-leaf stage for the postemergence treatment. Treated plants and untreated controls were maintained in a greenhouse for approximately 10 days, after which time all treated plants were compared to untreated controls and visually evaluated for injury. Plant response ratings, summarized in Table A, are based on a 0 to 100 scale where 0 is no effect and 100 is complete control. A dash (-) response means no test result.

barnyardgrass = test: Test A pre-/postemergence herbicide test; assay type: in vivo, Echinochloa crus-galli
Method in brief: as §2

galium = test: Test A postemergence herbicide test; assay type: in vivo, Galium aparine; details: for Galium plant response rating (0 to 100 scale, 0 is no effect, 100 is complete control): 500 g ai/ha
Excerpt: as §3

wheat = test: Test A pre-/postemergence herbicide test; assay type: in vivo, Triticum aestivum; details: Postemergence; for Wheat plant response rating (0 to 100 scale, 0 is no effect, 100 is complete control): 500 g ai/ha
Method in brief: as §2

[1] = 125 g ai/ha, visual rating, 0 to 100 scale, 0 no effect, 100 complete control, approximately 10 days, preemergence
[2] = Postemergence, 125 g ai/ha, 0 to 100 scale, 0 is no effect, 100 is complete control
[3] = preemergence, 500 g ai/ha, 0 to 100 scale, 0 is no effect and 100 is complete control
[4] = 125 g ai/ha, 0 to 100 scale, 0 is no effect, 100 is complete control
[5] = Postemergence, 125 g ai/ha, 0 to 100 scale, 0 no effect, 100 complete control
[6] = preemergence, 500 g ai/ha, 0 to 100 scale
[7] = 125 g ai/ha, 0 to 100 scale, 0 no effect, 100 complete control
[8] = Postemergence, 1000 g ai/ha, 0 to 100 scale (0 no effect, 100 complete control)
[9] = preemergence, 1000 g ai/ha, 0 to 100 scale
[10] = 1000 g ai/ha, 0 to 100 scale (0 no effect, 100 complete control)

**Q.** Which results are given for `Cc1ccc(NC(=O)C2C(=O)NCC2c2cccc(C(F)(F)F)c2)cc1C(F)(F)F` (racemic) [Compound 186]?
**A.** Plant response rating, Kochia (kochia; [1]): 0; Plant response rating, Kochia (kochia; [2]): 0; Kochia plant response rating (0 to 100 scale, 0 is no effect, 100 is complete control) (kochia; Postemergence, 500 g ai/ha): 0; Plant response rating, Kochia (kochia; [3]): 0; Plant response rating, Foxtail, Giant (giant foxtail; [1]): 0; Plant response rating, Foxtail, Giant (giant foxtail; [2]): 0; Foxtail, Giant plant response rating (0 to 100 scale, 0 is no effect, 100 is complete control) (giant foxtail; Postemergence, 500 g ai/ha): 0; Plant response rating, Foxtail, Giant (giant foxtail; [3]): 0; Plant response rating, Ragweed (ragweed; [1]): 0; Plant response rating, Ragweed (ragweed; [2]): 0; Ragweed plant response rating (0 to 100 scale, 0 is no effect, 100 is complete control) (ragweed; Postemergence, 500 g ai/ha): 0; Plant response rating, Ragweed (ragweed; [3]): 0; Plant response rating, Pigweed (pigweed; [1]): 0; Plant response rating, Pigweed (pigweed; [2]): 0; Pigweed plant response rating (0 to 100 scale, 0 is no effect, 100 is complete control) (pigweed; Postemergence, 500 g ai/ha): 0; Plant response rating, Pigweed (pigweed; [3]): 0; Plant response rating, Ryegrass, Italian (ryegrass, Italian; [1]): 0; Plant response rating, Ryegrass, Italian (ryegrass, Italian; [2]): 0; Ryegrass, Italian plant response rating (0 to 100 scale, 0 is no effect, 100 is complete control) (ryegrass, Italian; Postemergence, 500 g ai/ha): 0; Plant response rating, Ryegrass, Italian (ryegrass, Italian; [3]): 0; Plant response rating, Corn (corn; [4]): 0; Corn plant response rating (0 to 100 scale, 0 is no effect, 100 is complete control) (corn): 0; Plant response rating, Blackgrass (blackgrass; [4]): 0; Blackgrass plant response rating (0 to 100 scale, 0 is no effect, 100 is complete control) (blackgrass): 0; Plant response rating, Barnyardgrass (barnyardgrass; [1]): 0; Plant response rating, Barnyardgrass (barnyardgrass; [2]): 0; Barnyardgrass plant response rating (0 to 100 scale, 0 is no effect, 100 is complete control) (barnyardgrass; Postemergence, 500 g ai/ha): 0; Plant response rating, Barnyardgrass (barnyardgrass; [3]): 0; Plant response rating, Galium (galium; [4]): 0; Galium plant response rating (0 to 100 scale, 0 is no effect, 100 is complete control) (galium): 0; Plant response rating, Wheat (wheat; [4]): 0; Wheat plant response rating (0 to 100 scale, 0 is no effect, 100 is complete control) (wheat): 0

**Q.** `Cc1ccc(C2CNC(=O)C2C(=O)Nc2ccc(F)cc2F)cc1F` (racemic) [Compound 145] was tested. Which “Plant response rating, Kochia” value (kochia; [1]) did it give?
**A.** The value was 0.

**Q.** What about the “Plant response rating, Kochia” value (kochia; [5]) of the same compound?
**A.** Its value is 0.

**Q.** And the “Kochia plant response rating (0 to 100 scale, 0 is no effect, 100 is complete control)” value (kochia; Postemergence, 500 g ai/ha)?
**A.** The value was 20.

**Q.** And the “Plant response rating, Kochia” value (kochia; [6])?
**A.** Its value is 0.

**Q.** And the “Plant response rating, Foxtail, Giant” value (giant foxtail; [1])?
**A.** The value was 70.

**Q.** And the “Plant response rating, Foxtail, Giant” value (giant foxtail; [5])?
**A.** The value was 40.

**Q.** And the “Foxtail, Giant plant response rating (0 to 100 scale, 0 is no effect, 100 is complete control)” value (giant foxtail; Postemergence, 500 g ai/ha)?
**A.** The value was 70.

**Q.** And the “Plant response rating, Foxtail, Giant” value (giant foxtail; [6])?
**A.** Its value is 90.

**Q.** What about the “Plant response rating, Ragweed” value (ragweed; [1]) of the same compound?
**A.** Its value is 0.

**Q.** And the “Plant response rating, Ragweed” value (ragweed; [5])?
**A.** Its value is 0.

**Q.** What about the “Ragweed plant response rating (0 to 100 scale, 0 is no effect, 100 is complete control)” value (ragweed; Postemergence, 500 g ai/ha) of the same compound?
**A.** The value was 20.

**Q.** And the “Plant response rating, Ragweed” value (ragweed; [6])?
**A.** Its value is 0.

**Q.** And the “Plant response rating, Pigweed” value (pigweed; [1])?
**A.** Its value is 0.

**Q.** What about the “Plant response rating, Pigweed” value (pigweed; [5]) of the same compound?
**A.** The value was 0.

**Q.** What about the “Pigweed plant response rating (0 to 100 scale, 0 is no effect, 100 is complete control)” value (pigweed; Postemergence, 500 g ai/ha) of the same compound?
**A.** Its value is 0.

**Q.** And the “Plant response rating, Pigweed” value (pigweed; [6])?
**A.** The value was 0.

**Q.** What about the “Plant response rating, Ryegrass, Italian” value (ryegrass, Italian; [1]) of the same compound?
**A.** The value was 0.

**Q.** What about the “Plant response rating, Ryegrass, Italian” value (ryegrass, Italian; [5]) of the same compound?
**A.** Its value is 0.

**Q.** And the “Ryegrass, Italian plant response rating (0 to 100 scale, 0 is no effect, 100 is complete control)” value (ryegrass, Italian; Postemergence, 500 g ai/ha)?
**A.** The value was 0.

**Q.** And the “Plant response rating, Ryegrass, Italian” value (ryegrass, Italian; [6])?
**A.** The value was 0.

**Q.** And the “Plant response rating, Corn” value (corn; [7])?
**A.** Its value is 0.

**Q.** And the “Corn plant response rating (0 to 100 scale, 0 is no effect, 100 is complete control)” value (corn)?
**A.** Its value is 0.

**Q.** And the “Plant response rating, Blackgrass” value (blackgrass; [7])?
**A.** The value was 0.

**Q.** What about the “Blackgrass plant response rating (0 to 100 scale, 0 is no effect, 100 is complete control)” value (blackgrass) of the same compound?
**A.** Its value is 30.

**Q.** And the “Plant response rating, Barnyardgrass” value (barnyardgrass; [1])?
**A.** Its value is 80.

**Q.** And the “Plant response rating, Barnyardgrass” value (barnyardgrass; [5])?
**A.** Its value is 70.

**Q.** And the “Barnyardgrass plant response rating (0 to 100 scale, 0 is no effect, 100 is complete control)” value (barnyardgrass; Postemergence, 500 g ai/ha)?
**A.** Its value is 90.

**Q.** What about the “Plant response rating, Barnyardgrass” value (barnyardgrass; preemergence, 500 g ai/ha, 0 to 100 scale (0 no effect, 100 complete control)) of the same compound?
**A.** Its value is 90.

**Q.** What about the “Plant response rating, Galium” value (galium; [7]) of the same compound?
**A.** Its value is 20.

**Q.** And the “Galium plant response rating (0 to 100 scale, 0 is no effect, 100 is complete control)” value (galium)?
**A.** Its value is 50.

**Q.** What about the “Plant response rating, Wheat” value (wheat; [7]) of the same compound?
**A.** The value was 0.

**Q.** What about the “Wheat plant response rating (0 to 100 scale, 0 is no effect, 100 is complete control)” value (wheat) of the same compound?
**A.** Its value is 0.

**Q.** Which results are given for `O=C1NCC(c2cccc(-c3ccccc3F)c2)C1C(=O)Nc1ccccc1C(F)(F)F` (centres unmarked) [Compound 238]?
**A.** Plant response rating, Kochia (kochia; [8]): 0; Plant response rating, Kochia (kochia; [9]): 0; Plant response rating, Foxtail, Giant (giant foxtail; [8]): 30; Plant response rating, Foxtail, Giant (giant foxtail; [9]): 90; Plant response rating, Ragweed (ragweed; [8]): 0; Plant response rating, Ragweed (ragweed; [9]): 0; Plant response rating, Pigweed (pigweed; [8]): 0; Plant response rating, Pigweed (pigweed; [9]): 0; Plant response rating, Ryegrass, Italian (ryegrass, Italian; [8]): 0; Plant response rating, Ryegrass, Italian (ryegrass, Italian; [9]): 0; Plant response rating, Corn (corn; [10]): 0; Plant response rating, Blackgrass (blackgrass; [10]): 20; Plant response rating, Barnyardgrass (barnyardgrass; [8]): 30; Plant response rating, Barnyardgrass (barnyardgrass; preemergence, 1000 g ai/ha, 0 to 100 scale (0 no effect, 100 complete control)): 50; Plant response rating, Galium (galium; [10]): 20; Plant response rating, Wheat (wheat; [10]): 0
